Source: PubChem BioAssay AID1918953 (Molecular Pharmacology Branch, DTP, NCI, 2023)

Tested on: MDA-MB-231 complex spheroid viability
Test: Anticancer human tumor MDA-MB-231/ATCC cell line growth inhibition;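 also: drug exposure lasted 7 days starting on day 3 of spheroid growth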
Details: for IC50: curve of first compound; for viability, T/C: stronger effect = lower value
Description: Multicellular complex tumor spheroid response to LSD1 Inhibitor Iadademstat in combination with a variety of drugs and investigational agents in selected tumor cell lines
The current study was undertaken to assess response to LSD1 inhibitors in combination with standard-of-care drugs and investigational agents in solid tumor complex spheroid models as well as in the K-562 leukemia. Complex spheroids include a stromal component modeled by human endothelial cells (HUVEC) and fibroblasts modeled by human mesenchymal stem cells (MSCs). The concentration ranges selected for each drug and investigational agent were based upon clinically achievable concentrations if the clinical Cmax of the agent was known.
Compounds. The drugs and investigational agents used in this study are listed on Table 1. All of the agents used, including staurosporine (NSC755774) and gemcitabine (NSC613327), were obtained from the Developmental Therapeutics Program, NCI. FDA-approved anticancer drugs are available from the NCI at http://dtp.nci.nih.gov/branches/dscb/oncology_drugset_explanation.html. Drugs and investigational agents were >95% pure by proton nuclear magnetic resonance (NMR) and liquid chromatography/mass spectrometry (LC/MS). Stock solutions were prepared at 400x in DMSO, stored at -70 degrees C, and diluted in fresh medium prior to their use. The final concentration of DMSO in cell culture wells never exceeded 0.25% (v/v). The FDA-approved anticancer drug set is available from the Developmental Therapeutics Program at https://dtp.cancer.gov/organization/dscb/obtaining/available_plates.htm. All drugs and investigational agents were tested over a range starting from a high concentration at or near the clinical Cmax and decreasing in half-log increments. If the clinical Cmax for an agent had not been determined, the highest concentration tested was 10 microM.
Cell Lines. The patient-derived cancer cell (PDC) lines: 292921-168-R-J2-PDC, K24384-001-R-PDC, and 521955-158-R2-J5-PDC pancreatic carcinomas, 556581-035-R-J1 ovarian carcinoma, 324938-238-R-J1-PDC, 855422-203-R-J1-PDC and 883617-216-R-J1-PDC urothelial bladder carcinomas, 743489-274-T-PDC renal cell carcinoma, 138582-R-J1 Merkel cell tumor, K60290-347-R-J1 and K57222-313-R-J1-PDC glioblastomas, 653999-131-R-J2-PDC, LG0703-F948-PDC, and 349418-098-R-PDC non-small cell lung carcinomas, 885512-296-R-J2-PDC, 171881-019-R-J1-PDC breast carcinomas and 186277-243-T-J2-PDC and 233499-124-R-J2-PDC colon carcinomas were obtained from the NCI Patient-Derived Models Repository (PDMR, https://pdmr.cancer.gov). The established cell lines NCI/ADR-RES (RRID:CVCL_14520 and OVCAR-5 (RRID:CVCL_1628) ovarian carcinomas, 786-O (RRID:CVCL_1051) and A498 (RRID:CVCL_A498) renal cell carcinoma, NCI-H211 (ATCC, cat. CRL-5824; RRID:CVCL_1529), NCI-H196 (ATCC, cat. CRL-5823, RRID:CVCL_1509), SW 1271 (ATCC, cat. CRL-2177, RRID:CVCL_1716) and NCI-H1876 (ATCC, cat. CRL-5902, RRID:CVCL_1503) small cell lung carcinomas, MDA-MB-231 (RRID:CVCL_0062) and MDA-MB-468 (RRID:CVCL_0419)breast carcinomas (10-12). Pooled donor human umbilical vein endothelial cells (HUVEC, Lonza, cat. CC-2519) and human mesenchymal stem cells (hMSC, Lonza, cat. PT-2501) were purchased from Lonza (Walkersville, MD).
Cell Culture. All cells were maintained in an incubator at 37 degrees C and 5% CO2 with 95% humidity. The PDC lines were cultured according to standard operating procedures established by the NCI PDMR (https://pdmr.cancer.gov). Briefly all PDCs were thawed and cultured in Matrigel-coated flasks prepared with a working solution of 1X Ham's F-12 nutrient mix, without supplementation (Invitrogen, Waltham, MA, cat. 11765054), 100 U/mL penicillin-streptomycin (Invitrogen, cat. 15140122), and 2.5% Matrigel (Corning Inc., Corning, NY, cat. 354248) for the first three passages. […]

[1] = second compound 0.1 µM, first compound 0.00316 µM
[2] = second compound 0.1 µM, first compound 0.01 µM
[3] = second compound 0.1 µM, first compound 0.0316 µM
[4] = second compound 0.1 µM, first compound 0.1 µM
[5] = second compound 0.1 µM, first compound 0.316 µM
[6] = second compound 0.1 µM, first compound 1 µM
[7] = second compound 0.316 µM, first compound 0.00316 µM
[8] = second compound 0.316 µM, first compound 0.01 µM
[9] = second compound 0.316 µM, first compound 0.0316 µM
[10] = second compound 0.316 µM, first compound 0.1 µM
[11] = second compound 0.316 µM, first compound 0.316 µM
[12] = second compound 0.316 µM, first compound 1 µM
[13] = second compound 1 µM, first compound 0.00316 µM
[14] = second compound 1 µM, first compound 0.01 µM
[15] = second compound 1 µM, first compound 0.0316 µM
[16] = second compound 1 µM, first compound 0.1 µM
[17] = second compound 1 µM, first compound 0.316 µM
[18] = second compound 1 µM, first compound 1 µM
[19] = second compound 3.16 µM, first compound 0.00316 µM
[20] = second compound 3.16 µM, first compound 0.01 µM
[21] = second compound 3.16 µM, first compound 0.0316 µM
[22] = second compound 3.16 µM, first compound 0.1 µM
[23] = second compound 3.16 µM, first compound 0.316 µM
[24] = second compound 3.16 µM, first compound 1 µM
[25] = second compound 10 µM, first compound 0.00316 µM
[26] = second compound 10 µM, first compound 0.01 µM
[27] = second compound 10 µM, first compound 0.0316 µM
[28] = second compound 10 µM, first compound 0.1 µM
[29] = second compound 10 µM, first compound 0.316 µM
[30] = second compound 10 µM, first compound 1 µM

| SMILES | IC50 (second compound 0.1 µM) [µM] | IC50 (second compound 0.316 µM) [µM] | IC50 (second compound 1 µM) [µM] | IC50 (second compound 3.16 µM) [µM] | IC50 (second compound 10 µM) [µM] | viability, T/C [1] [%] | viability, T/C [2] [%] | viability, T/C [3] [%] | viability, T/C [4] [%] | viability, T/C [5] [%] | viability, T/C [6] [%] | viability, T/C [7] [%] | viability, T/C [9] [%] | viability, T/C [10] [%] | viability, T/C [15] [%] | viability, T/C [16] [%] | viability, T/C [21] [%] | viability, T/C [22] [%] | viability, T/C [27] [%] | viability, T/C [28] [%] | other results |
| --- | --- | --- | --- | --- | --- | --- | --- | --- | --- | --- | --- | --- | --- | --- | --- | --- | --- | --- | --- | --- | --- |
| CC1COCCN1c1cc(-c2ccnn2C)c2ccnc(-c3ccn[nH]3)c2n1 (centres undefined) + NC1CCC(NC2CC2c2ccccc2)CC1 | 0.0311 | 0.0343 | 0.0257 | 0.0165 | 0.0107 | 102 | 77.8 | 50.4 | 33.3 | 28.4 | 28.8 | 93.7 | 50.7 | 37.4 | 45.8 | 34.5 | 40.2 | 33 | 32.8 | 30 | viability, T/C [8]: 73.8%; viability, T/C [11]: 29.3%; viability, T/C [12]: 28.9%; viability, T/C [13]: 90%; viability, T/C [14]: 69.4%; viability, T/C [17]: 27.4%; viability, T/C [18]: 30.7%; viability, T/C [19]: 72.8%; viability, T/C [20]: 57.4%; viability, T/C [23]: 29.3%; viability, T/C [24]: 30.7%; viability, T/C [25]: 56.9%; viability, T/C [26]: 51%; viability, T/C [29]: 28%; viability, T/C [30]: 28.9% |
| COc1cc(Nc2ncc3c(n2)-c2ccc(Cl)cc2C(c2c(F)cccc2OC)=NC3)ccc1C(=O)O + NC1CCC(NC2CC2c2ccccc2)CC1 | 0.252 | 0.179 | 0.296 | 0.0901 | < 0.00316 | 85 | 66.4 | 56 | 58.7 | 50 | 44.3 | 83.1 | 56.2 | 54.9 | 55.6 | 56.2 | 51.2 | 54.5 | 40.7 | 38.6 | viability, T/C [8]: 65.5%; viability, T/C [11]: 50.8%; viability, T/C [12]: 42.7%; viability, T/C [13]: 80.4%; viability, T/C [14]: 64.6%; viability, T/C [17]: 51.5%; viability, T/C [18]: 45.6%; viability, T/C [19]: 68.4%; viability, T/C [20]: 54%; viability, T/C [23]: 48.5%; viability, T/C [24]: 38.2%; viability, T/C [25]: 49.4%; viability, T/C [26]: 42.4%; viability, T/C [29]: 41.8%; viability, T/C [30]: 37.2% |
| Cn1ncnc1C1c2n[nH]c(=O)c3cc(F)cc(c23)NC1c1ccc(F)cc1 (centres undefined) + NC1CCC(NC2CC2c2ccccc2)CC1 | > 0.1 | > 0.1 | > 0.1 | > 0.1 | < 0.000316 | 92.5 | 81.9 | 80.4 | 78.7 |  |  | 84.6 | 77.7 | 75.2 | 72.2 | 70.7 | 59.1 | 60.9 | 45.9 | 44.6 | viability, T/C (second compound 0.1 µM, first compound 0.000316 µM): 95.7%; viability, T/C (second compound 0.1 µM, first compound 0.001 µM): 97.2%; viability, T/C (second compound 0.316 µM, first compound 0.000316 µM): 95.4%; viability, T/C (second compound 0.316 µM, first compound 0.001 µM): 95.6%; viability, T/C [8]: 80.7%; viability, T/C (second compound 1 µM, first compound 0.000316 µM): 92.3%; viability, T/C (second compound 1 µM, first compound 0.001 µM): 89.9%; viability, T/C [13]: 87.8%; viability, T/C [14]: 81.3%; viability, T/C (second compound 3.16 µM, first compound 0.000316 µM): 70.8%; viability, T/C (second compound 3.16 µM, first compound 0.001 µM): 68.9%; viability, T/C [19]: 64.5%; viability, T/C [20]: 60.4%; viability, T/C (second compound 10 µM, first compound 0.000316 µM): 48.3%; viability, T/C (second compound 10 µM, first compound 0.001 µM): 50.3%; viability, T/C [25]: 48.9%; viability, T/C [26]: 42.2% |
| NC1CC1c1ccc(-c2cccc(O)c2)cc1 (centres undefined) |  |  |  |  |  |  |  |  |  |  |  |  |  |  |  |  |  |  |  |  | viability, T/C (compound 0.316 µM): 68.1% [middle of 25 runs]; viability, T/C (compound 1 µM): 62.9% [middle of 25 runs]; viability, T/C (compound 3.16 µM): 64.5% [middle of 25 runs]; viability, T/C (compound 10 µM): 47.7% [middle of 25 runs] |
| CC1(C)CCC(CN2CCN(c3ccc(C(=O)NS(=O)(=O)c4ccc(NCC5CCOCC5)c([N+](=O)[O-])c4)c(Oc4cnc5[nH]ccc5c4)c3)CC2)=C(c2ccc(Cl)cc2)C1 + NC1CC1c1ccc(-c2cccc(O)c2)cc1 | 4.48 | 4.29 | 4.43 | 4.28 | < 0.0316 |  |  | 90.9 | 93 | 94.5 | 112 |  | 74.1 | 78.6 | 75.2 | 70 | 68.2 | 70.2 | 48.5 | 42.5 | viability, T/C (second compound 0.1 µM, first compound 3.16 µM): 71.2%; viability, T/C (second compound 0.1 µM, first compound 10 µM): 1.41%; viability, T/C [11]: 82.1%; viability, T/C [12]: 77.9%; viability, T/C (second compound 0.316 µM, first compound 3.16 µM): 67.6%; viability, T/C (second compound 0.316 µM, first compound 10 µM): 1.16%; viability, T/C [17]: 76.7%; viability, T/C [18]: 80.5%; viability, T/C (second compound 1 µM, first compound 3.16 µM): 70%; viability, T/C (second compound 1 µM, first compound 10 µM): 1.72%; viability, T/C [23]: 78.8%; viability, T/C [24]: 79.4%; viability, T/C (second compound 3.16 µM, first compound 3.16 µM): 67.1%; viability, T/C (second compound 3.16 µM, first compound 10 µM): 1.48%; viability, T/C [29]: 48.5%; viability, T/C [30]: 55.3%; viability, T/C (second compound 10 µM, first compound 3.16 µM): 45.6%; viability, T/C (second compound 10 µM, first compound 10 µM): 0.6% |
